Data published in patent US10981917B2, “Heterocyclic compound, its preparation method, and pharmaceutical composition comprising the same” (Daewoong Pharmaceutical Co., Ltd., priority 2017, dated 2021).

Target: PRS (prolyl-tRNA synthetase) protein, PRS portion of EPRS (Homo sapiens (Human), UniProt P07814)
Assay: PRS enzyme activity inhibition experiment ([3H]proline, liquid scintillation)
Assay type: biochemical
Settings: purified PRS protein, 37° C. for 5 to 10 minutes
How it was run: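 Values are % inhibition or IC50 ranges (A ≤100 nM, B 100–500 nM, C ≥500 nM) from [3H]proline incorporation measured by liquid scintillation. PRS portion of human EPRS, reacted 5–10 min at 37 °C in pH 7.4 phosphate buffer containing 5 mM ATP and tRNA, compound at 1 μM.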

PRS (prolyl-tRNA synthetase) protein, PRS portion of EPRS, sequence (P07814 1007-1512): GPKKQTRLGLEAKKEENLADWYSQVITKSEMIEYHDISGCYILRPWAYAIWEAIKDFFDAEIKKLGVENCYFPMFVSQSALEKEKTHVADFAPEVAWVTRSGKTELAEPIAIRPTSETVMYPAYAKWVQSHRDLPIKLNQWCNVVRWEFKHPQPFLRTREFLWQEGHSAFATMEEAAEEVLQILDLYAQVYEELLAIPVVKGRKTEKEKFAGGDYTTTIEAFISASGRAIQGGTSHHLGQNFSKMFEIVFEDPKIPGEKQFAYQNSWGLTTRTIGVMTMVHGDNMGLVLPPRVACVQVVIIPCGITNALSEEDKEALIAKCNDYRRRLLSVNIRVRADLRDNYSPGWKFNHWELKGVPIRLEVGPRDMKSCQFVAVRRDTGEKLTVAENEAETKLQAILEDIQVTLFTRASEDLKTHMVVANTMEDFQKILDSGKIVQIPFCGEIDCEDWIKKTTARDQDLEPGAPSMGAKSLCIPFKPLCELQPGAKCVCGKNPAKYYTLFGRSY

IC50	Compound
≥ 500 nM	O[C@H]1CCCN[C@@H]1/C=C/Cn1ncc2ccc(Cl)cc21 [Example 198, (2R,3S)-2-((E)-3-(6-chloro-1H-indazol-1-yl)prop-1-en-1-yl)piperidin-3-ol]
100 to 500 nM	O[C@H]1CCCN[C@@H]1CCCn1cnc2nccc(Cl)c21 [Example 126, (2R,3S)-2-(3-(7-chloro-1H-imidazo[4,5-b]pyridin-1-yl)propyl)piperidin-3-ol]
≥ 500 nM	Cc1cc2ncn(C/C=C/[C@H]3NCCC[C@@H]3O)c2cc1C [Example 169, (2R,3S)-2-((E)-3-(5,6-dimethyl-1H-benzo[d]imidazol-1-yl)prop-1-en-1-yl)piperidin-3-ol]
100 to 500 nM	Cc1cc(-c2cc(Cl)cc3ncn(CCC[C@H]4NCCC[C@@H]4O)c23)c(C)s1 [Example 114, (2R,3S)-2-(3-(5-chloro-7-(2,5-dimethylthiophen-3-yl)-1H-benzo[d]imidazol-1-yl)propyl)piperidin-3-ol]
100 to 500 nM	O[C@H]1CCCN[C@@H]1CCCn1cnc2cccc(Br)c21 [Example 5, (2R,3S)-2-(3-(7-bromo-1H-benzo[d]imidazol-1-yl)propyl)piperidin-3-ol]
≥ 500 nM	O[C@H]1CCCN[C@@H]1CCCn1cnc2cc(Cl)cc(-c3cn[nH]c3)c21 [Example 81, (2R,3S)-2-(3-(5-chloro-7-(1H-pyrazol-4-yl)-1H-benzo[d]imidazol-1-yl)propyl)piperidin-3-ol]
≥ 500 nM	CCN(CC)c1ncnc2c1ncn2CCC[C@H]1NCCC[C@@H]1O [Example 138, (2R,3S)-2-(3-(6-(diethylamino)-9H-purin-9-yl)propyl)piperidin-3-ol]
≤ 100 nM	Cc1cscc1-c1cc(Cl)cc2ncn(CCC[C@H]3NCCC[C@@H]3O)c12 [Example 109, (2R,3S)-2-(3-(5-chloro-7-(4-methylthiophen-3-yl)-1H-benzo[d]imidazol-1-yl)propyl)piperidin-3-ol]
≥ 500 nM	OCc1nc2ccccc2n1CCC[C@H]1NCCC[C@@H]1O [Example 145, (2R,3S)-2-(3-(2-(hydroxymethyl)-1H-benzo[d]imidazol-1-yl)propyl)piperidin-3-ol]
≥ 500 nM	O[C@H]1CCCN[C@@H]1CCCn1cnc2nc(Br)ccc21 [Example 119, (2R,3S)-2-(3-(5-bromo-1H-imidazo[4,5-b]pyridin-1-yl)propyl)piperidin-3-ol]
100 to 500 nM	COc1cc2ncn(CCC[C@H]3NCCC[C@@H]3O)c2cc1Cl [Example 37, (2R,3S)-2-(3-(6-chloro-5-methoxy-1H-benzo[d]imidazol-1-yl)propyl)piperidin-3-ol]
≥ 500 nM	O[C@H]1CCCN[C@@H]1CCCn1cnc2cc(Cl)cc(-c3csc(C4CCOCC4)n3)c21 [Example 103, (2R,3S)-2-(3-(5-chloro-7-(2-(tetrahydro-2H-pyran-4-yl)thiazol-4-yl)-1H-benzo[d]imidazol-1-yl)propyl)piperidin-3-ol]
100 to 500 nM	COc1ccc2ncn(CCC[C@H]3NCCC[C@@H]3O)c2c1Cl [Example 60, (2R,3S)-2-(3-(7-chloro-6-methoxy-1H-benzo[d]imidazol-1-yl)propyl)piperidin-3-ol]
≥ 500 nM	Cn1c(=O)[nH]c2c(ncn2CCC[C@H]2NCCC[C@@H]2O)c1=O [Example 164, 9-(3-((2R,3S)-3-hydroxypiperidin-2-yl)propyl)-1-methyl-1H-purine-2,6(3H,9H)-dione]
100 to 500 nM	Cc1c(Cl)ccc2c1ncn2C/C=C/[C@H]1NCCC[C@@H]1O [Example 173, (2R,3S)-2-((E)-3-(5-chloro-4-methyl-1H-benzo[d]imidazol-1-yl)prop-1-en-1-yl)piperidin-3-ol]
≥ 500 nM	O[C@H]1CCCN[C@@H]1CCCn1cnc2c(N3CCOCC3)ncnc21 [Example 140, (2R,3S)-2-(3-(6-morpholino-9H-purin-9-yl)propyl)piperidin-3-ol]

IC50	Compound
≥ 500 nM	O[C@H]1CCCN[C@@H]1CCCn1cnc2cccc(-c3ccccc3F)c21 [Example 26, (2R,3S)-2-(3-(7-(2-fluorophenyl)-1H-benzo[d]imidazol-1-yl)propyl)piperidin-3-ol]
≥ 500 nM	O[C@H]1CCCN[C@@H]1CCCn1cnc2nc(Cl)ncc21 [Example 135, (2R,3S)-2-(3-(2-chloro-7H-purin-7-yl)propyl)piperidin-3-ol]
≥ 500 nM	O[C@H]1CCCN[C@@H]1CCCn1cnc2cc(C(F)(F)F)cc(-c3cn[nH]c3)c21 [Example 82, (2R,3S)-2-(3-(7-(1H-pyrazol-4-yl)-5-(trifluoromethyl)-1H-benzo[d]imidazol-1-yl)propyl)piperidin-3-ol]
≥ 500 nM	Cc1ccc2c(c1)c(C)nn2C/C=C/[C@H]1NCCC[C@@H]1O [Example 201, (2R,3S)-2-((E)-3-(3,5-dimethyl-1H-indazol-1-yl)prop-1-en-1-yl)piperidin-3-ol]
≥ 500 nM	O[C@H]1CCCN[C@@H]1C#CCn1cnc2cc(Br)c(Br)cc21 [Example 228, (2R,3S)-2-(3-(5,6-dibromo-1H-benzo[d]imidazol-1-yl)prop-1-yn-1-yl)piperidin-3-ol]
100 to 500 nM	O[C@H]1CCCN[C@@H]1CCCn1cnc2ccc(Br)c(F)c21 [Example 48, (2R,3S)-2-(3-(6-bromo-7-fluoro-1H-benzo[d]imidazol-1-yl)propyl)piperidin-3-ol]
≥ 500 nM	O[C@H]1CCCN[C@@H]1CCCn1nc(C2CC2)c2cc(Cl)ccc21 [Example 155, (2R,3S)-2-(3-(5-chloro-3-cyclopropyl-1H-indazol-1-yl)propyl)piperidin-3-ol]
100 to 500 nM	O[C@H]1CCCN[C@@H]1CCCn1cnc2c(Cl)c(F)ccc21 [Example 62, (2R,3S)-2-(3-(4-chloro-5-fluoro-1H-benzo[d]imidazol-1-yl)propyl)piperidin-3-ol]
≥ 500 nM	O[C@H]1CCCN[C@@H]1CCCn1cnc2cccc(OC(F)(F)F)c21 [Example 17, (2R,3S)-2-(3-(7-(trifluoromethoxy)-1H-benzo[d]imidazol-1-yl)propyl)piperidin-3-ol]
≤ 100 nM	Cc1cc(Cl)cc2c1ncn2CCC[C@H]1NCCC[C@@H]1O [Example 61, (2R,3S)-2-(3-(6-chloro-4-methyl-1H-benzo[d]imidazol-1-yl)propyl)piperidin-3-ol]
100 to 500 nM	O[C@H]1CCCN[C@@H]1CCCn1cnc2cccc(-c3ccc(F)cc3)c21 [Example 28, (2R,3S)-2-(3-(7-(4-fluorophenyl)-1H-benzo[d]imidazol-1-yl)propyl)piperidin-3-ol]
100 to 500 nM	CC(C)CCn1cc(-c2cc(Cl)cc3ncn(CCC[C@H]4NCCC[C@@H]4O)c23)cn1 [Example 107, (2R,3S)-2-(3-(5-chloro-7-(1-isopentyl-1H-pyrazol-4-yl)-1H-benzo[d]imidazol-1-yl)propyl)piperidin-3-ol]
100 to 500 nM	O[C@H]1CCCN[C@@H]1CCCn1cnc2cc(Cl)ccc21 [Example 11, (2R,3S)-2-(3-(5-chloro-1H-benzo[d]imidazol-1-yl)propyl)piperidin-3-ol]
≥ 500 nM	Cc1noc(C)c1-c1cc(Cl)cc2ncn(CCC[C@H]3NCCC[C@@H]3O)c12 [Example 93, (2R,3S)-2-(3-(5-chloro-7-(3,5-dimethylisoxazol-4-yl)-1H-benzo[d]imidazol-1-yl)propyl)piperidin-3-ol]
≤ 100 nM	O[C@H]1CCCN[C@@H]1CCCn1cnc2cc(Cl)cc(N3CCCC3)c21 [Example 99, (2R,3S)-2-(3-(5-chloro-7-(pyrrolidin-1-yl)-1H-benzo[d]imidazol-1-yl)propyl)piperidin-3-ol]
≤ 100 nM	Cc1c(F)ccc2c1ncn2CCC[C@H]1NCCC[C@@H]1O [Example 64, (2R,3S)-2-(3-(5-fluoro-4-methyl-1H-benzo[d]imidazol-1-yl)propyl)piperidin-3-ol]

Compound	IC50
COC(=O)c1cn(C/C=C/[C@H]2NCCC[C@@H]2O)c2cccc(Cl)c12 [Example 210, methyl 4-chloro-1-((E)-3-((2R,3S)-3-hydroxypiperidin-2-yl)allyl)-1H-indole-3-carboxylate]	≥ 500 nM
